Measurements from patent publication US6432948B1, “USE OF 7-(2-OXA-5,8-DIAZABICYLCO[4.3.0]NON-8-YL)-QUINOLONE CARBOXYLIC ACID AND NAPHTHYRIDON CARBOXYLIC ACID DERIVATIVES FOR THE TREATMENT OF HELIOBACTER PYLORI INFECTIONS AND ASSOCIATED GASTRODUODENAL DISEASES” (Bayer Aktiengesellschaft, priority 1996, dated 2002).
In brackets after ≈: the same amount, converted by molar mass. Where two headings read alike, the source gives them in different places. One block for each compound: values may come before it.

What was measured:
[1] = test system: H. felis ATCC 49179; settings: for Eradication of H. felis in the mouse model, monotherapy: therapeutically used doses; for Clearance % / Clearance (animals cleared / animals per group): infected mice, 2 × 10 mg/kg, 70 day treatment as printed in table title (7 days elsewhere in the source), 5 animals per group
Experimental: The bacteria are administered by stomach tube as a suspension (0.1 ml containing 10^8-10^9 bacteria) 4 times in the course of 7 days. Alternatively to this, stomach homogenates of previously infected mice were used for infection.
3-5 days after establishment of the infection, the treatment with test preparations was begun. […] In some cases, the bacterial eradication was also determined 2-4 weeks after the end of treatment. Following the “CLO” test used in clinical diagnosis, a urease test on a microtitre basis was employed. Defined stomach biopsy samples were tested for colour change within 24 hours.

[2] = test system: H. pylori NCTC 1163 7; test: MIC, agar dilution test; assay type: cell-based; settings: Helicobacter pylori
Experimental: . The test substances were tested in replica dishes, which contained falling concentrations of the active compound at in each case doubled dilution. For inoculation, fresh Helicobacter cultures from liquid culture or suspension of the bacteria from agar plates were used. The inoculated agar plates were incubated at 37° C. in an atmosphere containing 5-10% of CO2 for 48-72 hours. The MIC value (mg/l) which was read off indicates the lowest active compound concentration at which no growth was to be detected using the naked eye. The following Helicobacter isolates were used: H. felis ATCC 49179, H. pylori NCTC 1163 7, H. pylori clinical isolate 008.

[3] = test system: H. pylori clinical isolate 008; test: MIC, agar dilution test; assay type: cell-based; settings: Helicobacter pylori, Columbia agar or Basis 2 agar with 10% lysed horse blood, 37° C., 48-72 hours, read-out: MIC (mg/l) H. pylori 008
Experimental: For inoculation, fresh Helicobacter cultures from liquid culture or suspension of the bacteria from agar plates were used. The inoculated agar plates were incubated at 37° C. in an atmosphere containing 5-10% of CO2 for 48-72 hours.

[4] = NCTC1163, agar dilution test, Columbia agar or Basis 2 agar with 10% lysed horse blood, 37° C., 48-72 hours, read-out: MIC (mg/l) H. pylori 11637

SMILES: Cl.O=C(O)c1cn([C@@H]2C[C@@H]2F)c2c(F)c(N3C[C@@H]4NCCO[C@@H]4C3)c(F)cc2c1=O
melting point: 275 to 280 °C (dec.)

SMILES: O=C(O)c1cn([C@@H]2C[C@H]2F)c2nc(N3C[C@@H]4NCCO[C@@H]4C3)c(F)cc2c1=O (mixture of isomers) [Example 21, 6-Fluoro-1-(trans-2-fluorocyclopropyl)-1,4-dihydro-7-((1R,6s)-2-oxa-5,8-diazabicyclo[4.3.0]non-8-yl)-4-oxo-1,8-naphthyridine-3-carboxylic acid]
melting point: 310 to 314 °C (dec.)

SMILES: O=C(O)c1cn(C2CC2)c2c(Cl)c(N3C[C@@H]4CCCN[C@@H]4C3)c(F)cc2c1=O [BAY Y 3118, 8-chloro-1-cyclopropyl-7-([S,S]-2,8-diazabicyclo[4.3.0]non-8-yl)-6-fluoro-1,4-dihydro-4-oxo-3-quinolinecarboxylic acid, reference compound]
Death of animals on account of toxicity at eradicating treatment ([1]; mouse model, monotherapeutic treatment): a large part of the animals not dying on account of the toxicity of the compound
Eradication of H. felis in the mouse model, monotherapy ([1]; monotherapeutic treatment): no eradication of H. felis can be achieved

SMILES: O=C(O)c1cn(C2CC2)c2cc(N3CCNCC3)c(F)cc2c1=O [Ciprofloxacin, ciprofloxacin, reference compound]
Eradication of H. felis in the mouse model, monotherapy ([1]; monotherapeutic treatment): not able to lead to an eradication
MIC ([2]; NCTC1163, read-out: MIC (mg/l) H. pylori 11637): 0.125 mg/L (≈ 0.377 µM)

SMILES: N#Cc1c(N2CC3NCCOC3C2)c(F)cc2c(=O)c(C(=O)O)cn(C3CC3)c12 (centres unmarked) [Example 1A]
Eradication of the bacterium ([1]; 10-day treatment of the mice with 2×10 mg/kg): eradication of the bacterium
Clearance % [1]: 100%
Clearance (animals cleared / animals per group) [1]: 5/5
MIC [3]: 0.06 mg/L (≈ 0.151 µM)

SMILES: CN1COc2c(N3CC4NCCOC4C3)c(F)cc3c(=O)c(C(=O)O)cn1c23 [Example 2, 9-Fluoro-3-methyl-10-((1S,6S)-2-oxa-5,8-diazabicyclo[4.3.0]non-8-yl)-7-oxo-2,3-dihydro-7H-pyrido[1,2,3-d.e][1,3,4]benzoxadiazine-6-carboxylic acid]
Clearance % [1]: 100%
Clearance (animals cleared / animals per group) [1]: 5/5
MIC [3]: 0.06 mg/L (≈ 0.154 µM)

SMILES: COc1c(N2C[C@@H]3NCCO[C@@H]3C2)c(F)cc2c(=O)c(C(=O)O)cn(C3CC3)c12.Cl [Example 6, 1-Cyclopropyl-6-fluoro-8-methoxy-7-[(1R,6S)-2-oxa-5,8-diazabicyclo[4.3.0]non-8-yl]-1,4-dihydro-4-oxo-3-quinolinecarboxylic acid hydrochloride]
MIC [2, 4]: 0.06 mg/L
MIC [3]: 0.06 mg/L

SMILES: COc1c(N2C[C@@H]3NCCO[C@H]3C2)c(F)cc2c(=O)c(C(=O)O)cn(C3CC3)c12.Cl [Example 13]
MIC [2, 4]: 0.06 mg/L
MIC [3]: 0.125 mg/L

SMILES: CCn1cc(C(=O)O)c(=O)c2cc(F)c(N3CCNC(C)C3)c(F)c21 (centres unmarked) [lomefloxacin, reference compound]
Eradication of H. felis in the mouse model, monotherapy ([1]; monotherapeutic treatment): not able to lead to an eradication

The next lines start with the values.

melting point: 210 to 215 °C (dec.)
SMILES: Cl.O=C(O)c1cn([C@@H]2C[C@@H]2F)c2c(Cl)c(N3C[C@@H]4NCCO[C@@H]4C3)c(F)cc2c1=O

melting point: 236 to 238 °C (dec.)
SMILES: O=C(O)c1cn([C@@H]2C[C@@H]2F)c2cc(N3C[C@@H]4NCCO[C@@H]4C3)c(F)cc2c1=O (mixture of isomers) [Example 15, 6-Fluoro-1-(cis-2-fluorocyclopropyl)-1,4-dihydro-7-((1R,6S)-2-oxa-5,8-diazabicyclo[4.3.0]non-8-yl)-4-oxo-3-quinolinecarboxylic acid]

melting point: 270 to 274 °C (dec.)
SMILES: O=C(O)c1cn([C@@H]2C[C@H]2F)c2cc(N3C[C@@H]4NCCO[C@@H]4C3)c(F)cc2c1=O (mixture of isomers) [Example 19, 6-Fluoro-1-(trans-2-fluorocyclopropyl)-1,4-dihydro-7-((1 R,6S)-2-oxa-5,8-diazabicyclo[4.3.0]non-8-yl)-4-oxo-3-quinolinecarboxylic acid]

melting point: 160 to 164 °C (dec.)
SMILES: O=C(O)c1cn([C@@H]2C[C@H]2F)c2c(Cl)c(N3C[C@@H]4NCCO[C@@H]4C3)c(F)cc2c1=O (mixture of isomers) [Example 20, 8-Chloro-6-fluoro-1-(trans-2-fluorocyclopropyl)-1,4-dihydro-7-((1R,6S)-2-oxa-5,8-diazabicyclo[4.3.0]non-8-yl)-4-oxo-3-quinolinecarboxylic acid]

MIC [2, 4]: 0.06 mg/L (≈ 0.141 µM)
MIC [3]: 0.25 mg/L (≈ 0.588 µM)
SMILES: CC(CF)(CF)n1cc(C(=O)O)c(=O)c2cc(F)c(N3C[C@@H]4NCCO[C@@H]4C3)cc21 [Example 4, 1-(1-Fluoromethyl-1-methyl-2-fluoroethyl)-6-fluoro-7-[(1R,6S)-2-oxa-5,8-diazabicyclo[4.3.0]non-8-yl]-1,4-dihydro-4-oxo-3-quinolinecarboxylic acid]

MIC [2, 4]: 0.06 mg/L (≈ 0.137 µM)
MIC [3]: 0.06 mg/L (≈ 0.137 µM)
SMILES: O=C(O)c1cn(C2CC2)c2c(OC(F)F)c(N3CC4NCCOC4C3)c(F)cc2c1=O [Example 8, 1-Cyclopropyl-8-difluoromethoxy-6-fluoro-1,4-dihydro-7-((1S,6S)-2-oxa-5 8-diazabicyclo[4.3.0]non-8-yl)-4-oxo-3-quinolinecarboxylic acid]
